Target: T1, full length active recombinant SYK enzyme (Homo sapiens, UniProt P43405)
T1 construct: full length active recombinant SYK enzyme (Millipore, Calif.); purchased Millipore
Test: Inhibition of Syk tyrosine phosphorylation activity (LANCE TR-FRET kinase assay)
Assay type: biochemical
Settings: 1 nM active SYK enzyme, 550 nM SYK-substrate, 100 μM ATP, 1 hour at room temperature
Description: The in vitro and in vivo human Syk activities of the inventive compounds can be determined by various procedures known in the art, such as a test for their ability to inhibit the activity of human plasma Syk.
Inhibition of Syk Tyrosine Phosphorylation Activity
SYK tyrosine phosphorylation activity is measured using the LANCE™ Technology developed by Perkin Elmer Life and Analytical Sciences (Boston, Mass.). LANCE™ refers to homogeneous time resolved fluorometry applications using techniques such as time-resolved fluorescence resonance energy transfer assay (TR-FRET) (see generally for procedures in Perkin Elmer Application Note—How to Optimize a Tyrosine Kinase Assay Using Time Resolved Fluorescence-Based LANCE Detection, wwww.perkinelmer.com/lifesciences). The assay principle involves detection of a phosphorylated substrate using energy transfer from a phosphospecific europium-labeled antibody to streptavidin-allophycocyanin as an acceptor.
Molecules are reconstituted in 30% DMSO and serially diluted 1:3 with the final dilution containing DMSO in the absence of the candidate molecule. The final DMSO concentration in the assay is 3%. Kinase assays are performed as a two part reaction. […] The second reaction involves termination of the kinase reaction and the simultaneous addition of the detection reagents-europium-labeled anti-phosphotyrosine reagent (Eu-W1024-PY100, Perkin Elmer, Boston, Mass.) and Streptavidin-Allophycocyanin detection reagent (SA-APC, Prozyme, CA). The kinase reaction is performed in a black U-bottom 96-well microtitre plate. […] The reaction is allowed to proceed for 1 hour at room temperature. The quench buffer contains 100 mM Tris pH 7.5, 300 mM […], 20 mM EDTA, 0.02% Brij35, and 0.5% BSA. The detection reagents are added to the reaction mixture at the following dilutions-1:500 for Eu-W1024-PY100 and 1:250 for SA-APC. The kinase reaction is terminated by the addition of 50 μL quench buffer containing the detection reagents. The detection is allowed to proceed for 1 hr at room temperature. Detection of the phosphorlated substrate in the absence and presence of inhibitors is measured in the TR-FRET instrument, Analyst HT (Molecular Probes, Sunnyvale, Calif.) and the condition for measurements are set up using CriterionHost Release 2.0 (Molecular Probes, Sunnyvale, Calif.). […] IC50s were derived by non-linear regression analysis.

`NC(=O)c1nnc(N[C@@H]2CCCC[C@@H]2N)nc1Nc1cccc(-c2ncccn2)c1` [Example 1, 3-((1R,2S)-2-aminocyclohexylamino)-5-(3-(pyrimidin-2-yl)phenylamino)-1,2,4-triazine-6-carboxamide] and `NC(=O)c1nnc(N[C@@H]2CCCC[C@@H]2N)nc1Nc1ccc(-c2ncccn2)cc1` [Example 3, 3-(((1R,2S)-2-aminocyclohexyl)amino)-5-((4-(pyrimidin-2-yl)phenyl)amino)-1,2,4-triazine-6-carboxamide] fall in the same range of IC50: 1 to 10 nM for the first, 1 to 10 nM for the second.

Compared with `NC(=O)c1nnc(N[C@@H]2CCCC(F)(F)[C@@H]2N)nc1Nc1cccc(-c2ncccn2)c1` [Example 2, 3-(((1R,2R)-2-amino-3,3-difluorocyclohexyl)amino)-5-((3-(pyrimidin-2-yl)phenyl)amino)-1,2,4-triazine-6-carboxamide], `Cc1cccc(Nc2nc(N[C@@H]3CCCC(F)(F)[C@@H]3N)nnc2C(N)=O)c1` [Example 12, 3-(((1R,2R)-2-amino-3,3-difluorocyclohexyl)amino)-5-(m-tolylamino)-1,2,4-triazine-6-carboxamide] is lower in IC50: 100 to 1000 nM for the first, 10 to 100 nM for the second.

`NC(=O)c1nnc(N[C@@H]2CCCC[C@@H]2N)nc1Nc1cccc(-n2cncn2)c1` [Example 5, 5-((3-(1H-1,2,4-triazol-1-yl)phenyl)amino)-3-(((1R,2S)-2-aminocyclohexyl)amino)-1,2,4-triazine-6-carboxamide] and `NC(=O)c1nnc(N[C@@H]2CCCC[C@@H]2N)nc1Nc1cccc(-n2cccn2)c1` [Example 6, 5-(3-(1H-pyrazol-1-yl)phenylamino)-3-((1R,2S)-2-aminocyclohexylamino)-1,2,4-triazine-6-carboxamide] fall in the same range of IC50: 1 to 10 nM for the first, 1 to 10 nM for the second.

Compared with `NC(=O)c1nnc(N[C@@H]2CCCC[C@@H]2N)nc1Nc1cccc(-c2ncco2)c1` [Example 7, 3-(((1R,2S)-2-aminocyclohexyl)amino)-5-((3-(oxazol-2-yl)phenyl)amino)-1,2,4-triazine-6-carboxamide], `Cc1cccc(Nc2nc(N[C@@H]3CCCC[C@@H]3N)nnc2C(N)=O)c1` [Example 11, 3-(((1R,2S)-2-aminocyclohexyl)amino)-5-(m-tolylamino)-1,2,4-triazine-6-carboxamide] is lower in IC50: 1 to 10 nM for the first, less than 1 nM for the second.

First: Cc1ccc(Nc2nc(N[C@@H]3CCCC[C@@H]3N)nnc2C(N)=O)cc1 [Example 8, 3-(((1R,2S)-2-aminocyclohexyl)amino)-5-(p-tolylamino)-1,2,4-triazine-6-carboxamide]
Second: NC(=O)c1nnc(N[C@@H]2CCCC[C@@H]2N)nc1Nc1ccc(F)cc1 [Example 25, 3-(((1R,2S)-2-aminocyclohexyl)amino)-5-((4-fluorophenyl)amino)-1,2,4-triazine-6-carboxamide]
The IC50 of the first is lower: 1 to 10 nM for the first, 10 to 100 nM for the second.

Compared with `Cc1ccc(Nc2nc(N[C@@H]3CCOC[C@@H]3N)nnc2C(N)=O)cc1` [Example 9, 3-(((3R,4R)-3-aminotetrahydro-2H-pyran-4-yl)amino)-5-(p-tolylamino)-1,2,4-triazine-6-carboxamide], `NC(=O)c1nnc(N[C@@H]2CCCC[C@@H]2N)nc1Nc1ccc(Cl)cc1` [Example 27, 3-(((1R,2S)-2-aminocyclohexyl)amino)-5-((4-chlorophenyl)amino)-1,2,4-triazine-6-carboxamide] is lower in IC50: 10 to 100 nM for the first, 1 to 10 nM for the second. The second is the more potent here.

`CC[C@@H](Nc1nnc(C(N)=O)c(Nc2ccc(C)cc2)n1)C(N)=O` [Example 10, (R)-3-((1-amino-1-oxobutan-2-yl)amino)-5-(p-tolylamino)-1,2,4-triazine-6-carboxamide] and `CC[C@@H](Nc1nnc(C(N)=O)c(Nc2cccc(C)c2)n1)C(N)=O` [Example 13, (R)-3-((1-amino-1-oxobutan-2-yl)amino)-5-(m-tolylamino)-1,2,4-triazine-6-carboxamide] fall in the same range of IC50: 10 to 100 nM for the first, 10 to 100 nM for the second.

First: NC(=O)c1nnc(N[C@@H]2CCCC[C@@H]2N)nc1Nc1cncc(F)c1 [Example 14, 3-(((1R,2S)-2-aminocyclohexyl)amino)-5-((5-fluoropyridin-3-yl)amino)-1,2,4-triazine-6-carboxamide]
Second: NC(=O)c1nnc(N[C@@H]2CCCC[C@@H]2N)nc1Nc1cccc(F)c1 [Example 17, 3-(((1R,2S)-2-aminocyclohexyl)amino)-5-((3-fluorophenyl)amino)-1,2,4-triazine-6-carboxamide]
The IC50 of the first is higher: 100 to 1000 nM for the first, 1 to 10 nM for the second. The second is the more potent here.

`CC[C@@H](Nc1nnc(C(N)=O)c(Nc2cncc(F)c2)n1)C(N)=O` [Example 15, (R)-3-((1-amino-1-oxobutan-2-yl)amino)-5-((5-fluoropyridin-3-yl)amino)-1,2,4-triazine-6-carboxamide] and `CC(C)C[C@@H](Nc1nnc(C(N)=O)c(Nc2cncc(F)c2)n1)C(N)=O` [Example 16, (R)-3-((1-amino-4-methyl-1-oxopentan-2-yl)amino)-5-((5-fluoropyridin-3-yl)amino)-1,2,4-triazine-6-carboxamide] fall in the same range of IC50: 100 to 1000 nM for the first, 100 to 1000 nM for the second.

Compared with `NC(=O)c1nnc(N[C@@H]2CCCC[C@@H]2N)nc1Nc1ccc(F)c(F)c1` [Example 18, 3-(((1R,2S)-2-aminocyclohexyl)amino)-5-((3,4-difluorophenyl)amino)-1,2,4-triazine-6-carboxamide], `Cc1ccc(Nc2nc(N[C@@H]3CCCC[C@@H]3N)nnc2C(N)=O)cc1F` [Example 19, 3-(((1R,2S)-2-aminocyclohexyl)amino)-5-((3-fluoro-4-methylphenyl)amino)-1,2,4-triazine-6-carboxamide] is lower in IC50: 10 to 100 nM for the first, 1 to 10 nM for the second. The second is the more potent here.

`NC(=O)c1nnc(N[C@@H]2CCCC[C@@H]2N)nc1Nc1cc(F)cc(F)c1` [Example 20, 3-(((1R,2S)-2-aminocyclohexyl)amino)-5-((3,5-difluorophenyl)amino)-1,2,4-triazine-6-carboxamide] and `NC(=O)c1nnc(N[C@@H]2CCCC[C@@H]2N)nc1Nc1cc(F)cc(Cl)c1` [Example 21, 3-(((1R,2S)-2-aminocyclohexyl)amino)-5-((3-chloro-5-fluorophenyl)amino)-1,2,4-triazine-6-carboxamide] fall in the same range of IC50: 1 to 10 nM for the first, 1 to 10 nM for the second.

`Cc1cc(F)cc(Nc2nc(N[C@@H]3CCCC[C@@H]3N)nnc2C(N)=O)c1` [Example 22, 3-(((1R,2S)-2-aminocyclohexyl)amino)-5-((3-fluoro-5-methylphenyl)amino)-1,2,4-triazine-6-carboxamide] and `Cc1cc(Nc2nc(N[C@@H]3CCCC[C@@H]3N)nnc2C(N)=O)ccc1F` [Example 26, 3-(((1R,2S)-2-aminocyclohexyl)amino)-5-((4-fluoro-3-methylphenyl)amino)-1,2,4-triazine-6-carboxamide] fall in the same range of IC50: 1 to 10 nM for the first, 1 to 10 nM for the second.

`NC(=O)c1nnc(N[C@@H]2CCCC[C@@H]2N)nc1Nc1cccc(Cl)c1` [Example 23, 3-(((1R,2S)-2-aminocyclohexyl)amino)-5-((3-chlorophenyl)amino)-1,2,4-triazine-6-carboxamide] and `NC(=O)c1nnc(N[C@@H]2CCCC[C@@H]2N)nc1Nc1ccc(F)c(Cl)c1` [Example 24, 3-(((1R,2S)-2-aminocyclohexyl)amino)-5-((3-chloro-4-fluorophenyl)amino)-1,2,4-triazine-6-carboxamide] fall in the same range of IC50: 1 to 10 nM for the first, 1 to 10 nM for the second.

Compared with `CCC(=O)N1CCC(c2ccc(Nc3nc(N[C@@H]4CCCC[C@@H]4N)nnc3C(N)=O)cc2)CC1` [Example 28, 3-(((1R,2S)-2-aminocyclohexyl)amino)-5-((4-(1-propionylpiperidin-4-yl)phenyl)amino)-1,2,4-triazine-6-carboxamide], `C[N+]1([O-])CCC(c2ccc(Nc3nc(N[C@@H]4CCCC[C@@H]4N)nnc3C(N)=O)cc2)CC1` (stereo partly drawn) [Example 29, 4-(4-((3-(((1R,2S)-2-aminocyclohexyl)amino)-6-carbamoyl-1,2,4-triazin-5-yl)amino)phenyl)-1-methylpiperidine 1-oxide] is higher in IC50: 1 to 10 nM for the first, 10 to 100 nM for the second. The first is the more potent here.

First: NC(=O)c1nnc(N[C@@H]2CCCC[C@@H]2N)nc1Nc1ccc(N2CCOCC2)c(F)c1 [Example 30, 3-(((1R,2S)-2-aminocyclohexyl)amino)-5-((3-fluoro-4-morpholinophenyl)amino)-1,2,4-triazine-6-carboxamide]
Second: CC[C@@H](Nc1nnc(C(N)=O)c(Nc2ccc(N3CCOCC3)c(F)c2)n1)C(N)=O [Example 31, (R)-3-((1-amino-1-oxobutan-2-yl)amino)-5-((3-fluoro-4-morpholinophenyl)amino)-1,2,4-triazine-6-carboxamide]
The IC50 of the first is lower: 1 to 10 nM for the first, 10 to 100 nM for the second.

From patent US9040530B2, “1,2,4-triazine-6-carboxamide kinase inhibitors” (Portola Pharmaceuticals, Inc., priority 2012, dated 2015)
